According to patent publication US20250115558A1, “PYRIDAZINE DERIVATIVES AND RELATED USES” (NodThera Limited, priority 2023, published 2025):
pIC50: −log10 of the molar value. Where a name gives a salt, the structure may show the parent alone.

Key:
THP-1 = THP-1 IC50 assay; assay type: cell-based; conditions: Homo sapiens; THP-1 cells
[1] = test system: IL-1β release upon NLRP3 activation in peripheral blood mononuclear cells (PBMC); assay: PBMC IC50 Determination Assay; assay type: cell-based; conditions: Homo sapiens; inhibition of IL-1β release; LPS-primed PBMC stimulated with ATP or nigericin
Protocol: The compounds of the present disclosure were tested for their inhibitory activity against IL-1β release upon NLRP3 activation in peripheral blood mononuclear cells (PBMC).
Protocol A. PBMC were isolated from buffy coats by density gradient centrifugation on Histopaque-1077 (Sigma, cat no. 10771). Isolated cells were seeded into the wells of a 96-well plate and incubated for 3 h with lipopolysaccharide (LPS). Following medium exchange, the compounds of the present disclosure were added (a single compound per well) and the cells were incubated for 30 min. Next, the cells were stimulated either with ATP (5 mM) or nigericin (10 μM) for 1 h and the cell culture media from the wells were collected for further analysis.
The release of IL-1β into the media was determined by a quantitative detection of IL-1β in the media using an IL-1β enzyme-linked immunosorbent assay (ELISA) Ready-SET-Go!, eBioscience cat. No. 88-7261-88. Briefly, in a first step, high affinity binding plates (Corning, Costar 9018 or NUNC Maxisorp Cat No. 44-2404) were coated overnight at 4° C. with specific capture antibody included in the kit (anti-human IL-1β ref. 14-7018-68). Subsequently, plates were blocked with blocking buffer for 1 h at room temperature (rt) and after washing with a buffer (PBS with 0.05% Tween-20) incubated with protein standard and culture media. After 2 h of incubation at rt, plates were washed and incubated with biotinylated detection antibody included in the kit (anti-human IL-1β Biotin ref. 33-7110-68) for 1 h at rt. Plates were washed and incubated with HRP-streptavidin for 30 min at rt and washed again. The signal was developed after addition of 3,3′,5,5′-tetramethylbenzidine-peroxidase (TMB) until colour appeared and the reaction was stopped by 2 M H2SO4. A microplate spectrophotometer (BioTek) was used to detect signals with 450 nm. The detection range of IL-1β ELISA was […].
Protocol B. PBMC were isolated from buffy coats by density gradient centrifugation on Histopaque-1077 (Sigma, cat no. 10771). Isolated cells were seeded into the wells (280,000 cells/well) of a 96-well plate and incubated for 3 h with lipopolysaccharide (LPS, 1 μg/mL diluted 1000× from a 1 mg/mL stock solution). The compounds of the present disclosure were added (a single compound per well) and the cells were incubated for 30 min. Next, the cells were stimulated with ATP (5 mM final concentration diluted 20× from a 100 mM stock solution) for 1 h and the cell culture media from the wells were collected for further analysis.
The release of IL-1β into the media was determined by quantitative detection of IL-1β in the media using HTRF®, CisBio cat. No. 62HIL1BPEH. Briefly, cell culture supernatant were dispensed directly into the assay plate containing antibodies labelled with the HTRF® donor and acceptor. A microplate spectrophotometer (BMG) was used to detect signals at 655 nm and 620 nm. The detection range of IL-1β HTRF® was 39-6500 μg/mL.

Row | Compound | pIC50 (THP-1) | pIC50 [1]
1 | Cc1cc(C(F)(F)F)cc(O)c1-c1ccc(CN2CCN(C)CC2)nn1 [Compound 131] | 5.00 to 5.52 | 5.52 to 6.00
2 | Cc1cc(C(F)(F)F)cc(O)c1-c1ccc(CNC2CC3(C2)CS(=O)(=O)C3)nn1 [Compound 3, 6-(((6-(2-Hydroxy-6-methyl-4-(trifluoromethyl)phenyl)pyridazin-3-yl)methyl)amino)-2-thiaspiro[3.3]heptane 2,2-dioxide] | 6.00 to 6.30 | 6.00 to 6.30
3 | Cc1cc(Cl)cc(O)c1-c1ccc(CN[C@H]2CC(=O)N(C)C2)nn1 [Compound 90, (4S)-4-({[6-(4-Chloro-2-hydroxy-6-methylphenyl)pyridazin-3-yl]methyl}amino)-1-methylpyrrolidin-2-one] | 6.00 to 6.30 | > 6.30
4 | Cc1cc(C(F)(F)F)cc(O)c1-c1ccc(CNc2ccncn2)nn1 [Compound 75, 3-Methyl-2-(6-((pyrimidin-4-ylamino)methyl)pyridazin-3-yl)-5-(trifluoromethyl)phenol hydrochloride] | > 6.30 | 6.00 to 6.30
5 | CO[C@H]1CCN(Cc2ccc(-c3c(C)cc(C(F)(F)F)cc3O)nn2)C1 [Compound 40, (S)-2-(6-((3-Methoxypyrrolidin-1-yl)methyl)pyridazin-3-yl)-3-methyl-5-(trifluoromethyl)phenol] | 5.52 to 6.00 | 6.00 to 6.30
6 | Cc1cc(Cl)cc(O)c1-c1ccc(CNC2CCOCC2)nn1 [Compound 12, 5-Chloro-3-methyl-2-(6-(((tetrahydro-2H-pyran-4-yl)amino)methyl)pyridazin-3-yl)phenol] | > 6.30 | > 6.30
7 | Cc1cc(C(F)(F)F)cc(O)c1-c1ccc(CNc2c(C)noc2C)nn1 [Compound 51, 2-(6-(((3,5-Dimethylisoxazol-4-yl)amino)methyl)pyridazin-3-yl)-3-methyl-5-(trifluoromethyl)phenol] | 5.52 to 6.00 | 6.00 to 6.30
8 | Cc1cc(C(F)(F)F)cc(O)c1-c1ccc(CNC2CCSCC2)nn1 [Compound 136] | 6.00 to 6.30 | 6.00 to 6.30
9 | Cc1cc(Cl)cc(O)c1-c1ccc(CN[C@H]2CCC(=O)N(C)C2)nn1 [Compound 87, (5S)-5-({[6-(4-Chloro-2-hydroxy-6-methylphenyl)pyridazin-3-yl]methyl}amino)-1-methylpiperidin-2-one] | > 6.30 | > 6.30
10 | Cc1cc(C(F)(F)F)cc(O)c1-c1ccc(CN2CCN(C)C(=O)C2)nn1 [Compound 132] | 5.52 to 6.00 | 5.52 to 6.00
11 | Cc1cc(C(F)(F)F)cc(O)c1-c1ccc(CNC2CC3CCOC32)nn1 (stereo not shown) [Compound 4, 2-(6-(((2-Oxabicyclo[3.2.0]heptan-7-yl)amino)methyl)pyridazin-3-yl)-3-methyl-5-(trifluoromethyl)phenol] | 5.52 to 6.00 | 5.52 to 6.00
12 | Cc1cc(C(F)(F)F)cc(O)c1-c1ccc(CNc2ncccn2)nn1 [Compound 74, 3-Methyl-2-(6-((pyrimidin-2-ylamino)methyl)pyridazin-3-yl)-5-(trifluoromethyl)phenol] | 5.52 to 6.00 | 5.52 to 6.00
13 | Cc1cc(C(F)(F)F)cc(O)c1-c1ccc(CNCc2cnccn2)nn1 [Compound 92, 3-Methyl-2-(6-(((pyrazin-2-ylmethyl)amino)methyl)pyridazin-3-yl)-5-(trifluoromethyl)phenol] | 5.00 to 5.52 | 5.52 to 6.00
14 | Oc1cc(Cl)cc(F)c1-c1ccc(CNC2CCOCC2)nn1 [Compound 69, 5-Chloro-3-fluoro-2-(6-(((tetrahydro-2H-pyran-4-yl)amino)methyl)pyridazin-3-yl)phenol hydrochloride] | 5.00 to 5.52 | 5.00 to 5.52
15 | Cc1cc(C(F)(F)F)cc(O)c1-c1ccc(CNCc2cccs2)nn1 [Compound 141] | 5.52 to 6.00 | > 6.30
16 | Cc1cc(Cl)cc(O)c1-c1ccc(CN(C)[C@H]2CCOC2)nn1 [Compound 59, (S)-5-Chloro-3-methyl-2-(6-((methyl(tetrahydrofuran-3-yl)amino)methyl)pyridazin-3-yl)phenol] | 6.00 to 6.30 | 5.52 to 6.00
17 | Cc1cc(C(F)(F)F)cc(O)c1-c1ccc(CNC2CCOC2)nn1 (stereo not shown) [Compound 103] | > 6.30 | > 6.30
